Assay results reported in patent US20230286978A1, “INDAZOLE DERIVATIVES AS INHIBITORS OF SARM1” (Disarm Therapeutics, Inc., priority 2020, published 2023).

The compounds below were run against SARM1 (Homo sapiens (Human), UniProt Q6SZW1) (assay: ARM-SAM-TIR SARM1 IC50 assay (NADase activity, RapidFire mass spectrometry)). Conditions: ARM-SAM-TIR lysate 5 µg/mL, 2 h pre-incubation with compound, 5 µM NAD+, 2 hr at room temperature.
Assay type: biochemical
Source text: This Example describes an assay of ARM-SAM-TIR NADase activity and use of this assay to measure the efficacy of compounds of Formula I/II to block SARM1 mediated NAD+ cleavage. This assay was optimized in such a way as to characterize the efficacy of the compounds in Formula I/IIto inhibit SARM1 activity and to calculate an IC50 value for each compound. This assay makes use of […], which encompasses the ARM, SAM and TIR domains. […] The next day, the cells were transfected with 15 μg ARM-SAM-TIR expression plasmid, SEQ ID NO: 1. The cultures were supplemented with 1 mM NR at time of transfection to minimize toxicity from ARM-SAM-TIR overexpression. Forty-eight hours after transfection, cells were harvested, pelleted by centrifugation at 1,000 rpm (Sorvall ST 16R centrifuge, Thermo Fisher), and washed once with cold PBS (0.01 M phosphate buffered saline NaCl 0.138 M; KCl 0.0027 M; pH 7.4). The cells were resuspended in PBS with protease inhibitors (cOmpleteTM protease inhibitor cocktail, Roche product # 11873580001) and cell lysates were prepared by sonication (Branson Sonifer 450, output = 3, 20 episodes of stroke). The lysates were centrifuged (12,000×g for 10 min at 4° C.) to remove cell debris and the supernatants (containing ARM-SAM-TIR protein) were stored at -80° C. for later use in the in vitro ARM-SAM-TIR NADase assay (see below). Protein concentration was determined by the Bicinchoninic (BCA) method and used to normalize lysate concentrations. The enzymatic assay was performed in a 384-well polypropylene plate in Dulbecco's PBS buffer in a final assay volume of 20 μL. […] The reaction was initiated by addition of 5 μM final assay concentration of NAD+ as substrate. After a 2 hr room temperature incubation, the reaction was terminated with 40 μL of stop solution of 7.5% trichloroactetic acid in acetonitrile. The NAD+ and ADPR concentrations were analyzed by a RapidFire High Throughput Mass Spectrometry System (Agilent Technologies, Santa Clara, CA) using an API4000 triple quadrupole mass spectrometer (AB Sciex Framingham, MA).

Chain of SARM1 (Q6SZW1 other isoform, or with tags, fused parts or gaps): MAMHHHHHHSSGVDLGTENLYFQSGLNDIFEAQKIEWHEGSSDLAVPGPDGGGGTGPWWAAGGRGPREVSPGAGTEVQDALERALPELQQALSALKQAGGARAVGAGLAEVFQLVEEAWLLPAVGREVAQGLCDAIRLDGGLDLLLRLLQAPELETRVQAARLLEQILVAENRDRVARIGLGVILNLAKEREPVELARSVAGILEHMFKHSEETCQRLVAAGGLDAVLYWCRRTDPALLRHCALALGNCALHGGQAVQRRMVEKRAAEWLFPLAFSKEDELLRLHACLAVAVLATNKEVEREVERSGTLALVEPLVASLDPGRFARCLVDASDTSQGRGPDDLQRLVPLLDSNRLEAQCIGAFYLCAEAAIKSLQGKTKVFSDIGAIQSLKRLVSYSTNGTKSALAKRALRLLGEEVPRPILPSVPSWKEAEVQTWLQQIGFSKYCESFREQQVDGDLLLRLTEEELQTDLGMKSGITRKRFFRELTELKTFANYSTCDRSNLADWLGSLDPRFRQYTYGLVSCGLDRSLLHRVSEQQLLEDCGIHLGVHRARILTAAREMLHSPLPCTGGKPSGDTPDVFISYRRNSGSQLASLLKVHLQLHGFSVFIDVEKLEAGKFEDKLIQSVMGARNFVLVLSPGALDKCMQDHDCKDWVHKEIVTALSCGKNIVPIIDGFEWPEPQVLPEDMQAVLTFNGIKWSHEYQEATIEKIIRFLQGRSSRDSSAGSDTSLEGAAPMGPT

Row | Structure (SMILES) | IC50 [µM]
1 | O=C(NCc1ccc(Cl)cc1)c1cccc2c(-c3ccncc3)n[nH]c12 [Example 1] | < 0.1
2 | O=C(NCc1ccccc1)c1cccc2c(-c3ccncc3)n[nH]c12 [Example 2] | 0.1 to 1
3 | O=C(NCc1ccc(Cl)cc1)c1cncc2c(-c3ccncc3)n[nH]c12 [Example 4] | < 0.1
4 | O=C(NCc1ccc(Cl)cc1)c1ccnc2c(-c3ccncc3)n[nH]c12 [Example 5] | < 0.1
5 | O=C(NCc1ccccc1)c1cncc2c(-c3ccncc3)n[nH]c12 [Example 6] | 0.1 to 1
6 | O=C(NCc1ccccc1)c1ccnc2c(-c3ccncc3)n[nH]c12 [Example 7] | 1.01 to 5
7 | C[C@H](NC(=O)c1cccc2c(-c3ccncc3)n[nH]c12)c1ccc(Cl)cc1 [Example 8] | > 10
8 | O=C(NCc1ccc(Cl)nc1)c1cccc2c(-c3ccncc3)n[nH]c12 [Example 9] | 0.1 to 1
9 | O=C(NCc1ccc(Cl)cc1)c1cccc2c(-c3ccncc3F)n[nH]c12 [Example 10] | < 0.1
10 | O=C(NCc1ccc(Cl)c(F)c1)c1cccc2c(-c3ccncc3F)n[nH]c12 [Example 12] | < 0.1
11 | O=C(NCc1ccc(Cl)s1)c1cccc2c(-c3ccncc3F)n[nH]c12 [Example 13] | 0.1 to 1
